The text below walks through data of PubChem BioAssay AID328 (DTP/NCI, 2004).

The test system of this experiment is BDF1 mice, P388 leukemia ip, median survival T/C. The experiment is described as follows: NCI In Vivo Anticancer Drug Screen. Data for tumor model P388 Leukemia (intraperitoneal) in B6D2F1 (BDF1) mice. The settings on record: endpoint: median survival time, higher = longer survival. The essentials: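 T/C = treated-group survival ÷ vehicle-control survival; tumour transplanted into mice before dosing.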

The mark [1] stands for this setting: dose: 100.0 mg/kg/injection, schedule: Q04DX003 (ip), vehicle: saline.
Where [2] appears, read: dose: 200.0 mg/kg/injection, schedule: Q04DX003 (ip), vehicle: saline.
[3] abbreviates: dose: 400.0 mg/kg/injection, schedule: Q04DX003 (ip), vehicle: saline.
[4] abbreviates: dose: 50.0 mg/kg/injection, schedule: Q04DX003 (ip), vehicle: saline.
Setting [5] is: dose: 100.0 mg/kg/injection, schedule: Q04DX003 (ip), vehicle: Klucel (hydroxypropylcellulose) (HPC).
Where [6] appears, read: dose: 200.0 mg/kg/injection, schedule: Q04DX003 (ip), vehicle: Klucel (hydroxypropylcellulose) (HPC).
The mark [7] stands for this setting: dose: 80.0 mg/kg/injection, schedule: Q01DX010 (ip), vehicle: saline.
Setting [8] is: dose: 25.0 mg/kg/injection, schedule: Q01DX009 (ip), vehicle: saline.
[9] abbreviates: dose: 100.0 mg/kg/injection, schedule: Q01DX009 (ip), vehicle: saline.
The mark [10] stands for this setting: dose: 200.0 mg/kg/injection, schedule: Q01DX009 (ip), vehicle: saline.

Molecules are shown by their SMILES. Several values for one entry are separate records, joined by “and”; a condition that tells them apart may be missing. Equal values may be shown once. Toxic doses and inconclusive results are not listed.

For `Nc1ccc(/C=C\c2nccc3ccccc23)cc1`, the T/C runs as follows: (dose: 0.39 mg/kg/injection, schedule: Q01DX009 (ip), vehicle: saline with Tween-80) 114 % of control; (dose: 0.78 mg/kg/injection, schedule: Q01DX009 (ip), vehicle: saline with Tween-80) 107 % of control; (dose: 0.78 mg/kg/injection, schedule: Q01DX009 (ip), vehicle: saline) 123 % of control; (dose: 1.56 mg/kg/injection, schedule: Q01DX009 (ip), vehicle: saline) 123 % of control; (dose: 3.13 mg/kg/injection, schedule: Q01DX009 (ip), vehicle: saline with Tween-80) 89 % of control; (dose: 3.13 mg/kg/injection, schedule: Q01DX009 (ip), vehicle: saline) 113 % of control.

Take `Nc1cc2ccncc2c2sc3ccccc3c12`: the T/C reads like this: under setting [1], 104 % of control; under setting [2], 97 % of control; under setting [3], 106 % of control.

As to `CN(C)N=Nc1ccccc1Cl`, the T/C reads like this: (dose: 25.0 mg/kg/injection, schedule: Q01DX009 (ip), vehicle: saline with Tween-80) 119 % of control; (dose: 100.0 mg/kg/injection, schedule: Q01DX009 (ip), vehicle: saline with Tween-80) 157 % of control.

For the compound `CCNCc1ccc(OC)cc1`, the T/C runs as follows: (dose: 25.0 mg/kg/injection, schedule: Q04DX003 (ip), vehicle: saline) 100 % of control; under setting [4], 100 % of control; under setting [1], 100 % of control.

On to `COc1cc([C@@H]2c3cc4c(cc3C(Br)[C@H]3COC(=O)[C@H]23)OCO4)cc(OC)c1OC` (stereo partly specified), for which the T/C reads like this: (dose: 1.0 mg/kg/injection, schedule: Q01DX010 (ip), vehicle: carboxymethylcellulose (CMC)) 104 % of control; (dose: 2.1 mg/kg/injection, schedule: Q01DX010 (ip), vehicle: carboxymethylcellulose (CMC)) 104 % of control; (dose: 4.2 mg/kg/injection, schedule: Q01DX010 (ip), vehicle: carboxymethylcellulose (CMC)) 104 % of control; (dose: 7.5 mg/kg/injection, schedule: Q01DX009 (ip), vehicle: Klucel (hydroxypropylcellulose) (HPC)) 161 % of control; (dose: 15.0 mg/kg/injection, schedule: Q01DX009 (ip), vehicle: Klucel (hydroxypropylcellulose) (HPC)) 190 % of control; (dose: 30.0 mg/kg/injection, schedule: Q01DX009 (ip), vehicle: Klucel (hydroxypropylcellulose) (HPC)) 95 % of control.

Regarding `NS(=O)(=O)c1cc([N+](=O)[O-])ccc1Cl`, the T/C is, setting by setting: under setting [5], 100 % of control; under setting [6], 108 % of control.

Turning to `Cn1c(N)nc2nc[nH]c2c1=S`, the T/C (dose: 10.0 mg/kg/injection, schedule: Q01DX010 (ip), vehicle: saline) was 91 % of control; the T/C (dose: 20.0 mg/kg/injection, schedule: Q01DX010 (ip), vehicle: saline) is 91 % of control and 95 % of control; the T/C (dose: 40.0 mg/kg/injection, schedule: Q01DX010 (ip), vehicle: saline) was 91 % of control and 100 % of control; the T/C under setting [7] was 91 % of control and 95 % of control.

Consider `CCC(=O)Nc1cc(Cl)ccc1C`, for which the T/C (dose: 50.0 mg/kg/injection, schedule: Q04DX003 (ip), vehicle: Klucel (hydroxypropylcellulose) (HPC)) is 118 % of control; the T/C (dose: 100.0 mg/kg/injection, schedule: Q01DX009 (ip), vehicle: Klucel (hydroxypropylcellulose) (HPC)) is 109 % of control; the T/C under setting [5] was 109 % of control; the T/C (dose: 200.0 mg/kg/injection, schedule: Q01DX009 (ip), vehicle: Klucel (hydroxypropylcellulose) (HPC)) was 90 % of control; the T/C under setting [6] was 104 % of control; the T/C (dose: 400.0 mg/kg/injection, schedule: Q01DX009 (ip), vehicle: Klucel (hydroxypropylcellulose) (HPC)) is 90 % of control. The T/C (dose: 400.0 mg/kg/injection, schedule: Q04DX003 (ip), vehicle: Klucel (hydroxypropylcellulose) (HPC)) is 100 % of control.

`O=C(OCCCl)c1ccc(Cl)cc1`: the T/C (dose: 50.0 mg/kg/injection, schedule: Q04DX003 (ip), vehicle: saline with Tween-80) was 108 % of control; the T/C (dose: 100.0 mg/kg/injection, schedule: Q04DX003 (ip), vehicle: saline with Tween-80) is 100 % of control; the T/C (dose: 200.0 mg/kg/injection, schedule: Q04DX003 (ip), vehicle: saline with Tween-80) was 94 % of control; the T/C (dose: 400.0 mg/kg/injection, schedule: Q04DX003 (ip), vehicle: saline with Tween-80) is 94 % of control.

Turning to `NC(Cc1ccc(O)c(I)c1)C(=O)O` (stereo unspecified), the T/C is 109 % of control under setting [8]; 113 % of control (dose: 50.0 mg/kg/injection, schedule: Q01DX009 (ip), vehicle: saline); 110 % of control under setting [4]; 120 % of control under setting [9]; 110 % of control under setting [1]; 95 % of control under setting [10]. Further, the T/C reads like this: under setting [2], 115 % of control; under setting [3], 110 % of control.

For the compound `CN(C)c1ccc(Nc2c3ccccc3nc3ccccc23)cc1`, the T/C runs as follows: (dose: 36.0 mg/kg/injection, schedule: Q01DX010 (ip), vehicle: saline) 159 % of control and 172 % of control; (dose: 54.0 mg/kg/injection, schedule: Q01DX010 (ip), vehicle: saline) 159 % of control and 172 % of control; under setting [7], 213 % of control and 218 % of control; (dose: 120.0 mg/kg/injection, schedule: Q01DX010 (ip), vehicle: saline) 268 % of control.

Turning to `CCN(CC)CCNc1ccc(C)c2sc3ccccc3c(=O)c12`, the T/C (dose: 12.5 mg/kg/injection, schedule: Q01DX009 (ip), vehicle: saline) is 97 % of control; the T/C under setting [8] was 109 % of control; the T/C (dose: 50.0 mg/kg/injection, schedule: Q01DX010 (ip), vehicle: saline) is 150 % of control and 170 % of control; the T/C under setting [9] is 158 % of control; the T/C (dose: 100.0 mg/kg/injection, schedule: Q01DX010 (ip), vehicle: saline) is 90 % of control.

`CN1CCC(OC(N)=O)CC1`: the T/C was 109 % of control under setting [9]; 100 % of control (dose: 100.0 mg/kg/injection, schedule: Q04DX003 (ip), vehicle: alcohol); 100 % of control (dose: 100.0 mg/kg/injection, schedule: Q04DX003 (ip), vehicle: saline sonified); 95 % of control (dose: 132.0 mg/kg/injection, schedule: Q01DX008 (ip), vehicle: saline); 113 % of control (dose: 132.0 mg/kg/injection, schedule: Q01DX009 (ip), vehicle: saline); 104 % of control (dose: 200.0 mg/kg/injection, schedule: Q01DX008 (ip), vehicle: saline). For the same compound, the T/C runs as follows: under setting [10], 109 % of control; (dose: 200.0 mg/kg/injection, schedule: Q04DX003 (ip), vehicle: alcohol) 100 % of control; (dose: 200.0 mg/kg/injection, schedule: Q04DX003 (ip), vehicle: saline sonified) 104 % of control; (dose: 300.0 mg/kg/injection, schedule: Q01DX008 (ip), vehicle: saline) 104 % of control; (dose: 300.0 mg/kg/injection, schedule: Q01DX009 (ip), vehicle: saline) 113 % of control; (dose: 400.0 mg/kg/injection, schedule: Q01DX009 (ip), vehicle: saline) 95 % of control. In addition, the T/C reads like this: (dose: 400.0 mg/kg/injection, schedule: Q04DX003 (ip), vehicle: alcohol) 118 % of control; (dose: 400.0 mg/kg/injection, schedule: Q04DX003 (ip), vehicle: saline sonified) 100 % of control.

On to `COc1ccc(C(=O)/C=C/c2ccccc2)c(O)c1CC=C(C)C`, for which the T/C is, setting by setting: (dose: 1.25 mg/kg/injection, schedule: Q01DX009 (ip), vehicle: Klucel (hydroxypropylcellulose) (HPC)) 114 % of control; (dose: 2.5 mg/kg/injection, schedule: Q01DX009 (ip), vehicle: Klucel (hydroxypropylcellulose) (HPC)) 118 % of control; (dose: 5.0 mg/kg/injection, schedule: Q01DX009 (ip), vehicle: Klucel (hydroxypropylcellulose) (HPC)) 91 % of control; (dose: 10.0 mg/kg/injection, schedule: Q01DX009 (ip), vehicle: Klucel (hydroxypropylcellulose) (HPC)) 91 % of control; (dose: 20.0 mg/kg/injection, schedule: Q01DX009 (ip), vehicle: Klucel (hydroxypropylcellulose) (HPC)) 95 % of control; (dose: 40.0 mg/kg/injection, schedule: Q01DX009 (ip), vehicle: Klucel (hydroxypropylcellulose) (HPC)) 91 % of control.

Regarding `CC(=O)[C@H]1CC[C@H]2[C@@H]3CC[C@@H]4C[C@@H](O)CC[C@]4(C)[C@H]3CC[C@]12C`, the T/C was 109 % of control (dose: 163.0 mg/kg/injection, schedule: Q01DX009 (ip), vehicle: saline with Tween-80) and 100 % of control (dose: 325.0 mg/kg/injection, schedule: Q01DX009 (ip), vehicle: saline with Tween-80).
